Assays:
[1] = Intrinsic dissolution, USP 28 method <1087>; assay type: physicochemical; settings: isotonic 50 mM acetate (pH 4.5) buffer at 37° C., 50 rpm; for Intrinsic dissolution Average: average of Run 1 and Run 2
Experimental: The intrinsic dissolution (Table 3) was determined using USP 28 method <1087> (United States Pharmacopeia, The National Formulary, USP 28, 28th edition, Rockville, […]., 2005). Preparation of each test sample was performed as per USP 28 method <1087> by weighing and transferring the material to the die cavity and compressing for 1 minute at the minimum compression pressure necessary to form a nondisintegrating compacted pellet. The dissolution media used was isotonic 50 mM acetate buffer (pH 4.5) at 37° C. and speed was set at 50 rpm. Each run was halted at 5 min, irrespective of the percent dissolved. Each salt was run in duplicate.

[2] = Aqueous solubility (24 hour equilibrated suspension in water, HPLC); assay type: physicochemical; settings: for pH measured at saturation: saturated aqueous solution
Experimental: The aliquot was diluted and analyzed by HPLC (Waters). The data was compared to a standard curve generated from a set of solutions of known concentrations. The standard curve and the samples were analyzed using a HPLC using the following conditions: • Column: Symmetry C-18, 5 um, 15 cm×3.9 mm (Waters) • Mobile Phase: 0.05 M KH2PO4—0.01M Hexanesulfonic Acid/THF (1000:125) (Apparent pH 5.0) • Column Temp: 20-30° C. • Flow Rate: 1.0 mL/min • Wavelength: 305 nm • Run Time: 15 min (zopiclone retention time is 9.5-10 min)

[3] = water, equilibrated 24 hour at ambient

SMILES	Intrinsic dissolution Run 1 [1]	Intrinsic dissolution Run 2 [1]	Intrinsic dissolution Average [1]	pH measured at saturation [2]	solubility thermodynamic at 24 h [2, 3]	Solubility [2, 3]
CN1CCN(C(=O)O[C@H]2c3nccnc3C(=O)N2c2ccc(Cl)cn2)CC1.O=S(=O)(O)c1ccccc1 [Besylate, (S)-Zopiclone Besylate]	3.3 mgA/cm^2/min	2.6 mgA/cm^2/min	2.9 mgA/cm^2/min	4.4	34 mg/mL	
CN1CCN(C(=O)O[C@H]2c3nccnc3C(=O)N2c2ccc(Cl)cn2)CC1 [Free base, (S)-(6-(5-chloro-2-pyridyl)-5-[(4-methyl-1-piperazinyl)carbonyloxy]-7-oxo-6,7-dihydro-5H-pyrrolo[3,4-b]pyrazine)]	0.6 mgA/cm^2/min	0.5 mgA/cm^2/min	0.5 mgA/cm^2/min	7.6		0.2^1 mgA/mL

Source: patent publication US8497267B2, “Method for treating a sleep disorder with a dosage form of besylate salts of zopiclone or eszopiclone” (Sunovion Pharmaceuticals Inc., priority 2007, dated 2013)
